Measurements published in ChEMBL document CHEMBL3352489, “6-Hydroxyquinolinium salts differing in the length of alkyl side-chain: synthesis and antimicrobial activity” (Bioorg Med Chem Lett, 2014).

Experiments:
Trichosporon asahii [1] = test: microbe, parasite or virus in culture; format: functional; conditions: Trichosporon asahii, 1188, 48 h
Description: Antifungal activity against Trichosporon asahii 1188 after 48 hrs by modified standard CSLI M27-A2 method

Candida albicans [2] = test: microbe, parasite or virus in culture; format: functional; conditions: ATCC 44859, 24 h
Description: Antifungal activity against Candida albicans ATCC 44859 after 24 hrs by modified standard CSLI M27-A2 method

Staphylococcus aureus [3] = test: microbe, parasite or virus in culture; format: functional; conditions: CCM 4516/08, 24 h
Description: Antibacterial activity against Staphylococcus aureus CCM 4516/08 after 24 hrs by microdilution broth method

[4] = test system: Trichophyton mentagrophytes; test: microbe, parasite or virus in culture; format: functional; conditions: Trichophyton mentagrophytes, 445, 120 h
Description: Antifungal activity against Trichophyton mentagrophytes 445 after 120 hrs by modified standard CSLI M27-A2 method

Pichia kudriavzevii [5] = test: Antifungal activity against Candida krusei E28 after 24 hrs by modified standard CSLI M27-A2 method; format: functional; conditions: E28, 24 h
Trichosporon asahii [6] = test: microbe, parasite or virus in culture; format: functional; conditions: Trichosporon asahii, 1188, 24 h
Description: Antifungal activity against Trichosporon asahii 1188 after 24 hrs by modified standard CSLI M27-A2 method

Klebsiella pneumoniae [7] = test: microbe, parasite or virus in culture; format: functional; conditions: D 11750/08, 24 h
Description: Antibacterial activity against Klebsiella pneumoniae D 11750/08 after 24 hrs by microdilution broth method

Aspergillus fumigatus [8] = test: microbe, parasite or virus in culture; format: functional; conditions: Aspergillus fumigatus, 231, 24 h
Description: Antifungal activity against Aspergillus fumigatus 231 after 24 hrs by modified standard CSLI M27-A2 method

Trichosporon asahii [9] = test: Fungicidal activity against Trichosporon asahii 1188 after 48 hrs by modified standard CSLI M27-A2 method; format: functional; conditions: Trichosporon asahii, 1188, 48 h
Aspergillus fumigatus [10] = test: microbe, parasite or virus in culture; format: functional; conditions: Aspergillus fumigatus, 231, 48 h
Description: Antifungal activity against Aspergillus fumigatus 231 after 48 hrs by modified standard CSLI M27-A2 method

Lichtheimia corymbifera [11] = test: microbe, parasite or virus in culture; format: functional; conditions: Lichtheimia corymbifera, 272, 24 h
Description: Antifungal activity against Absidia corymbifera 272 after 24 hrs by modified standard CSLI M27-A2 method

Nakaseomyces glabratus [12] = test: Antifungal activity against Candida glabrata 20/I after 48 hrs by modified standard CSLI M27-A2 method; format: functional
Candida albicans [13] = test: microbe, parasite or virus in culture; format: functional; conditions: ATCC 44859, 48 h
Description: Antifungal activity against Candida albicans ATCC 44859 after 48 hrs by modified standard CSLI M27-A2 method

Candida tropicalis [14] = test: microbe, parasite or virus in culture; format: functional; conditions: Candida tropicalis, 156, 24 h
Description: Antifungal activity against Candida tropicalis 156 after 24 hrs by modified standard CSLI M27-A2 method

Lichtheimia corymbifera [15] = test: Fungicidal activity against Absidia corymbifera 272 after 48 hrs by modified standard CSLI M27-A2 method; format: functional; conditions: Lichtheimia corymbifera, 272, 48 h
Staphylococcus aureus [16] = test: Bactericidal activity against Staphylococcus aureus H 5996/08 after 48 hrs by microdilution broth method; format: functional; conditions: H 5996/08, 48 h, read-out: MBC>99.9
Enterococcus sp. [17] = test: microbe, parasite or virus in culture; format: functional; conditions: J 14365/08, 48 h
Description: Antibacterial activity against Enterococcus sp. J 14365/08 after 48 hrs by microdilution broth method

Lichtheimia corymbifera [18] = test: microbe, parasite or virus in culture; format: functional; conditions: Lichtheimia corymbifera, 272, 48 h
Description: Antifungal activity against Absidia corymbifera 272 after 48 hrs by modified standard CSLI M27-A2 method

[19] = test system: Staphylococcus epidermidis; test: microbe, parasite or virus in culture; format: functional; conditions: H 6966/08, 48 h
Description: Antibacterial activity against Staphylococcus epidermidis H 6966/08 after 48 hrs by microdilution broth method

Staphylococcus aureus [20] = test: microbe, parasite or virus in culture; format: functional; conditions: CCM 4516/08, 48 h
Description: Antibacterial activity against Staphylococcus aureus CCM 4516/08 after 48 hrs by microdilution broth method

Staphylococcus aureus [21] = test: microbe, parasite or virus in culture; format: functional; conditions: H 5996/08, 24 h
Description: Antibacterial activity against Staphylococcus aureus H 5996/08 after 24 hrs by microdilution broth method

Pseudomonas aeruginosa [22] = test: Bactericidal activity against Pseudomonas aeruginosa CCM 1961 after 120 hrs by microdilution broth method; format: functional; conditions: CCM 1961, 120 h, read-out: MBC>99.9
Candida tropicalis [23] = test: Fungicidal activity against Candida tropicalis 156 after 48 hrs by modified standard CSLI M27-A2 method; format: functional; conditions: Candida tropicalis, 156, 48 h
Candida tropicalis [24] = test: microbe, parasite or virus in culture; format: functional; conditions: Candida tropicalis, 156, 48 h
Description: Antifungal activity against Candida tropicalis 156 after 48 hrs by modified standard CSLI M27-A2 method

Pseudomonas aeruginosa [25] = test: microbe, parasite or virus in culture; format: functional; conditions: CCM 1961, 120 h
Description: Antibacterial activity against Pseudomonas aeruginosa CCM 1961 after 120 hrs by microdilution broth method

[26] = test system: Staphylococcus epidermidis; test: microbe, parasite or virus in culture; format: functional; conditions: H 6966/08, 24 h
Description: Antibacterial activity against Staphylococcus epidermidis H 6966/08 after 24 hrs by microdilution broth method

Klebsiella pneumoniae [27] = test: microbe, parasite or virus in culture; format: functional; conditions: J 14368/08, 24 h
Description: Antibacterial activity against Klebsiella pneumoniae J 14368/08 after 24 hrs by microdilution broth method

Nakaseomyces glabratus [28] = test: Fungicidal activity against Candida glabrata 20/I after 48 hrs by modified standard CSLI M27-A2 method; format: functional
Staphylococcus aureus [29] = test: microbe, parasite or virus in culture; format: functional; conditions: H 5996/08, 48 h
Description: Antibacterial activity against Staphylococcus aureus H 5996/08 after 48 hrs by microdilution broth method

Enterococcus sp. [30] = test: Bactericidal activity against Enterococcus sp. J 14365/08 after 48 hrs by microdilution broth method; format: functional; conditions: J 14365/08, 48 h, read-out: MBC>99.9
Pichia kudriavzevii [31] = test: Antifungal activity against Candida krusei E28 after 48 hrs by modified standard CSLI M27-A2 method; format: functional; conditions: E28, 48 h
Klebsiella pneumoniae [32] = test: microbe, parasite or virus in culture; format: functional; conditions: D 11750/08, 48 h
Description: Antibacterial activity against Klebsiella pneumoniae D 11750/08 after 48 hrs by microdilution broth method

[33] = test system: Trichophyton mentagrophytes; test: Fungicidal activity against Trichophyton mentagrophytes 445 after 120 hrs by modified standard CSLI M27-A2 method; format: functional; conditions: Trichophyton mentagrophytes, 445, 120 h
Klebsiella pneumoniae [34] = test: Bactericidal activity against Klebsiella pneumoniae J 14368/08 after 48 hrs by microdilution broth method; format: functional; conditions: J 14368/08, 48 h, read-out: MBC>99.9
[35] = test system: Staphylococcus epidermidis; test: Bactericidal activity against Staphylococcus epidermidis H 6966/08 after 48 hrs by microdilution broth method; format: functional; conditions: H 6966/08, 48 h, read-out: MBC>99.9
Klebsiella pneumoniae [36] = test: microbe, parasite or virus in culture; format: functional; conditions: J 14368/08, 48 h
Description: Antibacterial activity against Klebsiella pneumoniae J 14368/08 after 48 hrs by microdilution broth method

Klebsiella pneumoniae [37] = test: Bactericidal activity against Klebsiella pneumoniae D 11750/08 after 24 hrs by microdilution broth method; format: functional; conditions: D 11750/08, 24 h, read-out: MBC>99.9
Pseudomonas aeruginosa [38] = test: microbe, parasite or virus in culture; format: functional; conditions: CCM 1961, 72 h
Description: Antibacterial activity against Pseudomonas aeruginosa CCM 1961 after 72 hrs by microdilution broth method

Enterococcus sp. [39] = test: microbe, parasite or virus in culture; format: functional; conditions: J 14365/08, 24 h
Description: Antibacterial activity against Enterococcus sp. J 14365/08 after 24 hrs by microdilution broth method

[40] = test system: Trichophyton mentagrophytes; test: microbe, parasite or virus in culture; format: functional; conditions: Trichophyton mentagrophytes, 445, 72 h
Description: Antifungal activity against Trichophyton mentagrophytes 445 after 72 hrs by modified standard CSLI M27-A2 method

Escherichia coli [41] = test: microbe, parasite or virus in culture; format: functional; conditions: CCM 4517, 48 h
Description: Antibacterial activity against Escherichia coli CCM 4517 after 48 hrs by microdilution broth method

Pichia kudriavzevii [42] = test: Fungicidal activity against Candida krusei E28 after 48 hrs by modified standard CSLI M27-A2 method; format: functional; conditions: E28, 48 h
Escherichia coli [43] = test: Bactericidal activity against Escherichia coli CCM 4517 after 48 hrs by microdilution broth method; format: functional; conditions: CCM 4517, 48 h, read-out: MBC>99.9
Escherichia coli [44] = test: microbe, parasite or virus in culture; format: functional; conditions: CCM 4517, 24 h
Description: Antibacterial activity against Escherichia coli CCM 4517 after 24 hrs by microdilution broth method

[45] = Cytotoxicity against CHOK1 cells after 24 hrs by MTT assay; format: ADME, cell-based; conditions: Cricetulus griseus, CHO-K1, 24 h
Candida albicans [46] = test: Fungicidal activity against Candida albicans ATCC 44859 after 48 hrs by modified standard CSLI M27-A2 method; format: functional; conditions: ATCC 44859, 48 h
Aspergillus fumigatus [47] = test: Fungicidal activity against Aspergillus fumigatus 231 after 48 hrs by modified standard CSLI M27-A2 method; format: functional; conditions: Aspergillus fumigatus, 231, 48 h
Staphylococcus aureus [48] = test: Bactericidal activity against Staphylococcus aureus CCM 4516/08 after 48 hrs by microdilution broth method; format: functional; conditions: CCM 4516/08, 48 h, read-out: MBC>99.9
Nakaseomyces glabratus [49] = test: Antifungal activity against Candida glabrata 20/I after 24 hrs by modified standard CSLI M27-A2 method; format: functional

CCCCCCCCCCCC[N+](C)(C)Cc1ccccc1
MIC (Trichosporon asahii [1]): 1.95 µM | MIC (Candida albicans [2]): 0.49 µM | MIC95 (Staphylococcus aureus [3]): 0.49 µM | MIC [4]: 0.98 µM | MIC (Pichia kudriavzevii [5]): 0.49 µM | MIC (Trichosporon asahii [6]): 0.49 µM | MIC95 (Klebsiella pneumoniae [7]): 0.49 µM | MIC (Aspergillus fumigatus [8]): 0.98 µM | MFC (Trichosporon asahii [9]): 1.95 µM | MIC (Aspergillus fumigatus [10]): 3.91 µM | MIC (Lichtheimia corymbifera [11]): 7.81 µM | MIC (Nakaseomyces glabratus [12]): 0.49 µM | MIC (Candida albicans [13]): 0.49 µM | MIC (Candida tropicalis [14]): 0.49 µM | MFC (Lichtheimia corymbifera [15]): 7.81 µM | MBC (Staphylococcus aureus [16]): 0.98 µM | MIC95 (Enterococcus sp. [17]): 0.98 µM | MIC (Lichtheimia corymbifera [18]): 7.81 µM | MIC95 [19]: 0.49 µM | MIC95 (Staphylococcus aureus [20]): 1.95 µM | MIC95 (Staphylococcus aureus [21]): 0.49 µM | MBC (Pseudomonas aeruginosa [22]): 7.81 µM | MFC (Candida tropicalis [23]): 0.98 µM | MIC (Candida tropicalis [24]): 0.49 µM | MIC95 (Pseudomonas aeruginosa [25]): 3.91 µM | MIC95 [26]: 0.49 µM | MIC95 (Klebsiella pneumoniae [27]): 0.98 µM | MFC (Nakaseomyces glabratus [28]): 0.49 µM | MIC95 (Staphylococcus aureus [29]): 0.49 µM | MBC (Enterococcus sp. [30]): 0.98 µM | MIC (Pichia kudriavzevii [31]): 0.49 µM | MIC95 (Klebsiella pneumoniae [32]): 0.49 µM | MFC [33]: 1.95 µM | MBC (Klebsiella pneumoniae [34]): 0.98 µM | MBC [35]: 0.49 µM | MIC95 (Klebsiella pneumoniae [36]): 0.98 µM | MBC (Klebsiella pneumoniae [37]): 0.49 µM | MIC95 (Pseudomonas aeruginosa [38]): 3.91 µM | MIC95 (Enterococcus sp. [39]): 0.49 µM | MIC [40]: 0.98 µM | MIC95 (Escherichia coli [41]): 1.95 µM | MFC (Pichia kudriavzevii [42]): 0.49 µM | MBC (Escherichia coli [43]): 1.95 µM | MIC95 (Escherichia coli [44]): 0.49 µM | IC50 [45]: 29 µM | MFC (Candida albicans [46]): 0.98 µM | MFC (Aspergillus fumigatus [47]): 3.91 µM | MBC (Staphylococcus aureus [48]): 1.95 µM | MIC (Nakaseomyces glabratus [49]): 0.49 µM
